Laboratory results: patent US8283348B2, “1-benzyl-3-hydroxymethylindazole derivatives and use thereof in the treatment of diseases based on the expression of MCP-1, CX3CR1 and p40” (Aziende Chimiche Riunite Angelini Francesco A.C.R.A.F. …, priority 2008, dated 2012)

Legend:
MCP-1 = test: Production of MCP-1 protein by LPS-stimulated MonoMac6 cells (ELISA); format: cell-based; conditions: Homo sapiens, MONO-MAC-6, MCP-1 protein in supernatant (ELISA), LPS 100 ng/ml 20 h; for inhibition at 300 µM: MonoMac6, compound 300 μM (maximum soluble concentration); for inhibition at 150 µM: MonoMac6, compound 150 μM (maximum soluble concentration); for inhibition at 75 µM: MonoMac6, compound 75 μM (maximum soluble concentration); for inhibition at 30 µM: MonoMac6, compound 30 μM (maximum soluble concentration)
Description: (§1) The capacity of the compounds to inhibit the expression of the protein MCP-1 by lipopolysaccharide (LPS)-stimulated MonoMac6 cells was evaluated. The cells were placed in 96-well plates at a concentration of 50 000 cells/well. The compounds were tested at the maximum soluble concentration given in Table 2 (in the range 30-300 μM) and incubated for 1 hour. The cells were then stimulated with LPS (100 ng/ml) for 20 hours.
The amount of MCP-1 produced was measured in the supernatants, suitably diluted with buffer, by means of an immunoenzymatic test (ELISA) using a commercial kit (ELISA MCP-1/JE, R&D Systems).
The results obtained, expressed as a percentage of inhibition, are collated in Table 2 below.

human p40 = test: Gene expression of p40 in LPS-stimulated MonoMac6 cells (real-time RT-PCR); format: cell-based; conditions: MONO-MAC-6, p40 mRNA, LPS 100 ng/ml 4 h; for inhibition at 150 µM: MonoMac6, compound 150 μM (maximum soluble concentration); for inhibition at 75 µM: MonoMac6, compound 75 μM (maximum soluble concentration)
Description: as §1, with “p40” for “the protein MCP-1”, “4” for “2”, “4” for “20”
(§2) The total RNA was extracted from the cell pellet using the RNeasy mini kit (Qiagen), reverse-transcribed with the TaqMan Reverse transcription reagents synthesis kit (Applied Biosystems) and the cDNA obtained was used for the real-time PCR reaction. The amplification was obtained in 96-well plates using the ABI Prism 7000 sequence detection system (Applied Biosystems), by applying the following temperature profile: 50° C. for 2 minutes, 95° C. for 10 minutes and 45 cycles at 95° C. for 15 seconds and 60° C. for 1 minute. For the amplification, a set of primers and probe specific for human p40 was used (Applied Biosystems, RefSeq NM_002187.2). A set of primers and probe for β-actin was used in separate wells as an internal control of the samples for the purposes of normalization. Once the reaction had taken place, the fluorescence data were analysed using the ABI Prism 7000 SDS software, by calculating the threshold cycle (Ct) for each sample and subsequently performing a relative quantification via the ΔΔCt method.
The results obtained, expressed as a percentage of inhibition, are collated in Table 4 below.

human CX3CR1 = test: Gene expression of CX3CR1 in LPS-stimulated MonoMac6 cells (real-time RT-PCR); format: cell-based; conditions: MONO-MAC-6, CX3CR1 mRNA, LPS 100 ng/ml 20 h; for inhibition at 300 µM: MonoMac6, compound 300 μM (maximum soluble concentration); for inhibition at 150 µM: MonoMac6, compound 150 μM (maximum soluble concentration); for inhibition at 75 µM: MonoMac6, compound 75 μM (maximum soluble concentration)
Description: as §2, with “The capacity of the compounds to inhibit the expression of CX3CR1 by lipopolysaccharide (LPS)-stimulated MonoMac6 cells was evaluated. The cells were placed in 96-well plates at a concentration of 50 000 cells/well. The compounds were tested at the maximum soluble concentration given in Table 3 (in the range 30-300 μM) and incubated for 1 hour. The cells were then stimulated with LPS (100 ng/ml) for 20 hours. The total” for “The total”, “for human CX3CR1 was used” for “for human p40 was used”, “Biosystems, RefSeq NM_001337.3). A set” for “Biosystems, RefSeq NM_002187.2). A set”, “ΔΔCt method. The results obtained, expressed as a percentage of inhibition, are collated in Table 3 below.” for “ΔΔCt method.”

human MCP-1 = test: Gene expression of MCP-1 in LPS-stimulated MonoMac6 cells (real-time RT-PCR); format: cell-based; conditions: MONO-MAC-6, MCP-1 mRNA, 1 h preincubation, LPS 100 ng/ml 4 h; for inhibition at 300 µM: MonoMac6, compound 300 μM (maximum soluble concentration); for inhibition at 150 µM: MonoMac6, compound 150 μM (maximum soluble concentration); for inhibition at 75 µM: MonoMac6, compound 75 μM (maximum soluble concentration)
Description: as §1, with “of” for “of the protein”, “1” for “2”, “4” for “20”
as §2, with “MCP-1” for “p40”, “NM_002982.3).” for “NM_002187.2).”
The results obtained, expressed as a percentage of inhibition, are collated in Table 1 below.

[1] = MonoMac6, compound 30 μM (maximum soluble concentration)

Molecule CC(C)(OCc1nn(Cc2ccccc2)c2ccccc12)C(N)=O [Compound 9, 2-[(1-benzyl-1H-indazol-3-yl)methoxy]-2-methylpropanamide] has an inhibition at 300 µM (MCP-1) of 98%, an inhibition at 300 µM (human p40; MonoMac6, compound 300 μM (maximum soluble concentration)) of 96% and a melting point of 111 to 112 °C. It also gave an inhibition at 300 µM (human CX3CR1) of 99% and an inhibition at 300 µM (human MCP-1) of 99%.

Work on CC(C)(OCc1nn(Cc2ccccc2)c2ccccc12)C(=O)NO [Compound 10, 2-[(1-benzyl-1H-indazol-3-yl)methoxy]-N-hydroxy-2-methylpropanamide] yielded an inhibition at 150 µM (MCP-1) of 91%, an inhibition at 150 µM (human p40) of 54% and a melting point of 115 to 116 °C. For the same molecule, the inhibition at 150 µM (human CX3CR1) was 95% and the inhibition at 150 µM (human MCP-1) was 61%.

CC(C)(OCc1nn(Cc2ccccc2)c2ccccc12)C(=O)NN [Compound 11, 2-[(1-benzyl-1H-indazol-3-yl)methoxy]-2-methylpropanohydrazide] showed an inhibition at 150 µM (MCP-1) of 79%, an inhibition at 150 µM (human p40) of 44% and a melting point of 92 to 93 °C. The inhibition at 150 µM (human CX3CR1) was 90% and the inhibition at 150 µM (human MCP-1) was 68%.

For CC(C)(OCc1nn(Cc2ccccc2)c2ccccc12)C(=O)NNC(N)=O [Compound 12, 2-{2-[(1-benzyl-1H-indazol-3-yl)methoxy]-2-methylpropanoyl}hydrazinecarboxamide], the inhibition at 300 µM (MCP-1) was 48%, the inhibition at 300 µM (human CX3CR1) was 83% and the inhibition at 300 µM (human MCP-1) was 20%.

Molecule CN(C)CCNC(=O)C(C)(C)OCc1nn(Cc2ccccc2)c2ccccc12.Cl [Compound 13, 2-[(1-benzyl-1H-indazol-3-yl)methoxy]-N-[2-(dimethylamino)ethyl]-2-methylpropanamide hydrochloride] has an inhibition at 75 µM (MCP-1) of 74%, an inhibition at 75 µM (human p40) of 59% and a melting point of 136 to 137 °C. It also gave an inhibition at 75 µM (human CX3CR1) of 100% and an inhibition at 75 µM (human MCP-1) of 72%.

In the case of CC(C)(OCc1nn(Cc2ccccc2)c2ccccc12)C(=O)Nc1ccccn1 [Compound 14, 2-[(1-benzyl-1H-indazol-3-yl)methoxy]-2-methyl-N-pyrid-2-ylpropanamide], the inhibition at 30 µM (MCP-1) is reported as 70%, the inhibition at 30 µM (human p40; [1]) is reported as 27% and the melting point is reported as 121 to 122 °C. For the same molecule, the inhibition at 30 µM (human CX3CR1; [1]) was 44% and the inhibition at 30 µM (human MCP-1; [1]) was 49%.

For CN1CCN(C(=O)C(C)(C)OCc2nn(Cc3ccccc3)c3ccccc23)CC1 [Compound 15, 1-benzyl-3-{[1,1-dimethyl-2-(4-methylpiperazin-1-yl)-2-oxoethoxy]methyl}-1H-indazole], the inhibition at 75 µM (MCP-1) was 59%, the inhibition at 75 µM (human p40) was 33% and the melting point was 97 to 98 °C. The inhibition at 75 µM (human CX3CR1) was 89% and the inhibition at 75 µM (human MCP-1) was 40%.

Molecule CC(C)(OCc1nn(Cc2ccccc2)c2ccccc12)C(=O)NNc1ccccc1 [Compound 27, 2-[(1-benzyl-1H-indazol-3-yl)methoxy]-2-methyl-N′-phenylpropanohydrazide] has an inhibition at 30 µM (MCP-1) of 82% and a melting point of 124 to 125 °C.
